Consider 14 compounds from PubChem BioAssay AID248 (DTP/NCI, 2004).

Several values for one entry are separate records, joined by “and”; a condition that tells them apart may be missing. Equal entries are not always repeated. Toxic doses and inconclusive results are not listed.

This assay has as its system L1210 leukemia ip in BDF1 mice, survival T/C. The experiment in a line: NCI In Vivo Anticancer Drug Screen. Data for tumor model L1210 Leukemia (intraperitoneal) in B6D2F1 (BDF1) mice. To be noted: endpoint: mean survival time, higher = longer survival. Put shortly: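 Value reflects the ratio of survival in compound-treated mice to survival in vehicle-treated controls, with both groups carrying the same transplanted tumor.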

[1] abbreviates: dose: 100.0 mg/kg/injection, schedule: Q04DX003 (ip), vehicle: saline with Tween-80.
[2] abbreviates: dose: 200.0 mg/kg/injection, schedule: Q04DX003 (ip), vehicle: saline with Tween-80.
Setting [3] is: dose: 400.0 mg/kg/injection, schedule: Q04DX003 (ip), vehicle: saline with Tween-80.
Where [4] appears, read: dose: 100.0 mg/kg/injection, schedule: Q04DX003 (ip), vehicle: saline.
The mark [5] stands for this setting: dose: 400.0 mg/kg/injection, schedule: Q04DX002 (ip), vehicle: saline with Tween-80.

`Cc1cc(OC(=O)Nc2cccc3ccccc23)ccc1Cl`: the T/C was 97 % of control and 101 % of control (dose: 100.0 mg/kg/injection, schedule: Q01DX009 (ip), vehicle: carboxymethylcellulose (CMC)); 105 % of control (dose: 100.0 mg/kg/injection, schedule: Q04DX002 (ip), vehicle: Klucel (hydroxypropylcellulose) (HPC)); 93 % of control and 91 % of control (dose: 100.0 mg/kg/injection, schedule: Q04DX002 (ip), vehicle: carboxymethylcellulose (CMC)); 103 % of control (dose: 100.0 mg/kg/injection, schedule: Q04DX003 (ip), vehicle: carboxymethylcellulose (CMC)); 98 % of control and 91 % of control (dose: 200.0 mg/kg/injection, schedule: Q01DX009 (ip), vehicle: carboxymethylcellulose (CMC)); 97 % of control (dose: 200.0 mg/kg/injection, schedule: Q04DX002 (ip), vehicle: Klucel (hydroxypropylcellulose) (HPC)). Also, the T/C (dose: 200.0 mg/kg/injection, schedule: Q04DX002 (ip), vehicle: carboxymethylcellulose (CMC)) was 97 % of control and 98 % of control; the T/C (dose: 200.0 mg/kg/injection, schedule: Q04DX003 (ip), vehicle: carboxymethylcellulose (CMC)) was 94 % of control; the T/C (dose: 400.0 mg/kg/injection, schedule: Q01DX009 (ip), vehicle: carboxymethylcellulose (CMC)) is 94 % of control and 98 % of control; the T/C (dose: 400.0 mg/kg/injection, schedule: Q04DX002 (ip), vehicle: Klucel (hydroxypropylcellulose) (HPC)) is 109 % of control; the T/C (dose: 400.0 mg/kg/injection, schedule: Q04DX002 (ip), vehicle: carboxymethylcellulose (CMC)) is 95 % of control; the T/C (dose: 400.0 mg/kg/injection, schedule: Q04DX003 (ip), vehicle: carboxymethylcellulose (CMC)) is 90 % of control.

As for `O=C(CNC(=O)c1cccc(C(=O)NCC(=O)Nc2ccc(C3=NCCN3)cc2)c1)Nc1ccc(C2=NCCN2)cc1`, the T/C is 107 % of control (dose: 4.0 mg/kg/injection, schedule: Q01DX Z (ip), vehicle: water); 104 % of control (dose: 6.0 mg/kg/injection, schedule: Q01DX Z (ip), vehicle: water); 113 % of control (dose: 9.0 mg/kg/injection, schedule: Q01DX Z (ip), vehicle: water); 153 % of control (dose: 12.0 mg/kg/injection, schedule: Q01DX Z (ip), vehicle: water).

In the case of `Cc1ccc(NC(=O)C2C3C=CC(C3)C2C(=O)Nc2ccc(C)cc2)cc1` (configuration not stated), the T/C under setting [1] is 96 % of control, the T/C under setting [2] is 96 % of control and the T/C under setting [3] was 91 % of control.

Turning to `CCCCCCCC(N)CC(=O)O` (configuration not stated), the T/C (dose: 100.0 mg/kg/injection, schedule: Q01DX009 (ip), vehicle: Klucel (hydroxypropylcellulose) (HPC)) is 105 % of control; the T/C (dose: 200.0 mg/kg/injection, schedule: Q01DX009 (ip), vehicle: Klucel (hydroxypropylcellulose) (HPC)) was 97 % of control; the T/C (dose: 400.0 mg/kg/injection, schedule: Q01DX009 (ip), vehicle: Klucel (hydroxypropylcellulose) (HPC)) was 107 % of control.

For `CC1C(=O)CC(=O)C1=O` (configuration not stated), the T/C is, setting by setting: (dose: 50.0 mg/kg/injection, schedule: Q01DX009 (ip), vehicle: saline sonified) 104 % of control; (dose: 100.0 mg/kg/injection, schedule: Q01DX009 (ip), vehicle: saline sonified) 117 % of control; under setting [4], 100 % of control; (dose: 200.0 mg/kg/injection, schedule: Q01DX009 (ip), vehicle: saline sonified) 104 % of control; (dose: 200.0 mg/kg/injection, schedule: Q04DX003 (ip), vehicle: saline) 100 % of control.

With `O=C(O)CSc1nc2ccccc2[nH]1`, the T/C is, setting by setting: under setting [1], 100 % of control; under setting [2], 96 % of control; under setting [3], 88 % of control.

Consider `CC(C)(CCCl)NCc1ccccc1`, for which the T/C is 101 % of control (dose: 25.0 mg/kg/injection, schedule: Q01DX009 (ip), vehicle: saline); 104 % of control (dose: 50.0 mg/kg/injection, schedule: Q01DX009 (ip), vehicle: saline); 88 % of control (dose: 100.0 mg/kg/injection, schedule: Q01DX009 (ip), vehicle: saline); 99 % of control under setting [4].

For `CCCCC(CC)CN(CC(CC)CCCC)c1nc(Cl)nc(N(CC(CC)CCCC)CC(CC)CCCC)n1` (configuration not stated), the T/C runs as follows: (dose: 25.6 mg/kg/injection, schedule: Q04DX002 (ip), vehicle: saline with Tween-80) 91 % of control; (dose: 64.0 mg/kg/injection, schedule: Q04DX002 (ip), vehicle: saline with Tween-80) 97 % of control; under setting [1], 92 % of control; (dose: 160.0 mg/kg/injection, schedule: Q04DX002 (ip), vehicle: saline with Tween-80) 91 % of control; under setting [2], 94 % of control; under setting [5], 91 % of control. For the same compound, under setting [3], the T/C was 92 % of control.

As for `O=C(Cl)c1cccc2c([N+](=O)[O-])cccc12`, the T/C by setting is: (dose: 22.0 mg/kg/injection, schedule: Q01DX001 (ip), vehicle: other) 96 % of control and 100 % of control; (dose: 33.0 mg/kg/injection, schedule: Q01DX001 (ip), vehicle: other) 103 % of control and 105 % of control; (dose: 75.0 mg/kg/injection, schedule: Q01DX001 (ip), vehicle: other) 103 % of control and 107 % of control; (dose: 100.0 mg/kg/injection, schedule: Q01DX001 (ip), vehicle: other) 97 % of control; (dose: 200.0 mg/kg/injection, schedule: Q01DX001 (ip), vehicle: other) 101 % of control; (dose: 400.0 mg/kg/injection, schedule: Q01DX001 (ip), vehicle: other) 106 % of control.

Take `S=C1SC2(CCCCCC2)NC2=C1CCCCC2`: the T/C runs as follows: (dose: 100.0 mg/kg/injection, schedule: Q04DX002 (ip), vehicle: saline with Tween-80) 103 % of control; (dose: 200.0 mg/kg/injection, schedule: Q04DX002 (ip), vehicle: saline with Tween-80) 89 % of control; under setting [5], 89 % of control.

`COC(OC)C1OC(c2ccccc2)OC2COC(c3ccccc3)OC21` (configuration not stated): the T/C is 92 % of control (dose: 12.5 mg/kg/injection, schedule: Q01DX009 (ip), vehicle: saline with Tween-80); 93 % of control (dose: 12.5 mg/kg/injection, schedule: Q04DX003 (ip), vehicle: saline with Tween-80); 92 % of control (dose: 25.0 mg/kg/injection, schedule: Q01DX009 (ip), vehicle: saline with Tween-80); 92 % of control (dose: 25.0 mg/kg/injection, schedule: Q04DX003 (ip), vehicle: saline with Tween-80); 92 % of control (dose: 50.0 mg/kg/injection, schedule: Q01DX009 (ip), vehicle: saline with Tween-80); 92 % of control (dose: 50.0 mg/kg/injection, schedule: Q04DX003 (ip), vehicle: saline with Tween-80).

In the case of `CCC(=O)c1ccc(O)cc1`, the T/C runs as follows: (dose: 100.0 mg/kg/injection, schedule: Q04DX003 (ip), vehicle: Klucel (hydroxypropylcellulose) (HPC)) 102 % of control; (dose: 200.0 mg/kg/injection, schedule: Q04DX003 (ip), vehicle: Klucel (hydroxypropylcellulose) (HPC)) 102 % of control; (dose: 400.0 mg/kg/injection, schedule: Q04DX003 (ip), vehicle: Klucel (hydroxypropylcellulose) (HPC)) 102 % of control.

`Cc1ccc(S(=O)(=O)N(C)CCC(C)C(=O)NN(C)c2ccccc2)cc1` (configuration not stated): the T/C reads like this: (dose: 75.0 mg/kg/injection, schedule: Q01DX001 (ip), vehicle: saline) 95 % of control; (dose: 150.0 mg/kg/injection, schedule: Q01DX001 (ip), vehicle: saline) 89 % of control; (dose: 300.0 mg/kg/injection, schedule: Q01DX001 (ip), vehicle: saline) 90 % of control.

Take `O=C(/C=C/C=C/c1ccccc1)c1ccc(Cl)cc1`: the T/C (dose: 100.0 mg/kg/injection, schedule: Q01DX009 (ip), vehicle: saline with Tween-80) is 97 % of control; the T/C under setting [1] was 95 % of control; the T/C (dose: 200.0 mg/kg/injection, schedule: Q01DX009 (ip), vehicle: saline with Tween-80) was 92 % of control; the T/C (dose: 400.0 mg/kg/injection, schedule: Q01DX009 (ip), vehicle: saline with Tween-80) is 95 % of control; the T/C under setting [3] is 96 % of control.
